The record followed here is patent US9963448B2, “Bicyclic inhibitors of PAD4” (Padlock Therapeutics, Inc., priority 2015, dated 2018).

SMILES strings stand for the structures. Read-outs that look alike come from different tables or passages of the source.

Test [1] has as its target hPAD4 (Homo sapiens, UniProt Q9UM07). As to the kind of experiment: hPAD4 RFMS (RapidFire mass spectrometry) PAD4 inhibition assay.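 On hPAD4 RFMS pIC50: grade E means pIC50 at most 4 and F means pIC50 4.0 to 5.0.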 Type of test: biochemical. The following applies: hPAD4 enzyme, RFMS readout. How it is done: (§1) Compounds of the present invention were assayed as inhibitors of PAD4 using the assay protocol described below.
(§2) Compound stock solutions were stored at RT. […] Final assay conditions were as follows:
(§3) Total incubation time: 65 mins at 37° C.
(§4) Stop solution: 40 μl 5% TCA in ACN
(§5) The compound numbers correspond to the compound numbers in Table 1. […] The term pIC50=−log(IC50). […] “NA” stands for “not assayed.”

Test [2] has as its target mPAD4 (Mus musculus, UniProt Q9Z183). Briefly: mPAD4 RFMS PAD4 inhibition assay.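 On mPAD4 RFMS pIC50: grade E means pIC50 at most 4 and F means pIC50 4.0 to 5.0.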 Type of test: biochemical. The settings on record: mPAD4, RFMS readout. How it is done: as §1, §2, §3, §4, §5
Setting [3] is: pIC50=−log(IC50), read-out: hPAD4 RFMS pIC50 (converted).
Setting [4] is: pIC50=−log(IC50), read-out: mPAD4 RFMS pIC50 (converted).

Sequence of hPAD4 (Q9UM07 whole entry): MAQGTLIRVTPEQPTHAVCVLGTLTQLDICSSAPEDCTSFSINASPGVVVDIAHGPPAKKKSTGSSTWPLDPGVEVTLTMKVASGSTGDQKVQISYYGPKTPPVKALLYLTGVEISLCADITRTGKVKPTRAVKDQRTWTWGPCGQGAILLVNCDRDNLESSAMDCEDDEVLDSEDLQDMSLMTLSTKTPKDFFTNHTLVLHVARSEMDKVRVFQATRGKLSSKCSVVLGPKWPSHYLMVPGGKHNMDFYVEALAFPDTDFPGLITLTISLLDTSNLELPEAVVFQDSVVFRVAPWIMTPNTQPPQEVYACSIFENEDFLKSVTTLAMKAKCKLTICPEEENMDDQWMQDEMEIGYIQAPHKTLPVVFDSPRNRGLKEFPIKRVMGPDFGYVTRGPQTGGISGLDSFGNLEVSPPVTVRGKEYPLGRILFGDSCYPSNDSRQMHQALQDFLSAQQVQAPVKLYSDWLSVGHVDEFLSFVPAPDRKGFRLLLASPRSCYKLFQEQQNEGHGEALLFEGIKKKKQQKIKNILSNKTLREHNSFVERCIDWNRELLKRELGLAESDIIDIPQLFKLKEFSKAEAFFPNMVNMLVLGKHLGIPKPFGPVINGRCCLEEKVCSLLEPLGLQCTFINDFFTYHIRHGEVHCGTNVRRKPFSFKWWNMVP
Sequence of mPAD4 (Q9Z183 whole entry): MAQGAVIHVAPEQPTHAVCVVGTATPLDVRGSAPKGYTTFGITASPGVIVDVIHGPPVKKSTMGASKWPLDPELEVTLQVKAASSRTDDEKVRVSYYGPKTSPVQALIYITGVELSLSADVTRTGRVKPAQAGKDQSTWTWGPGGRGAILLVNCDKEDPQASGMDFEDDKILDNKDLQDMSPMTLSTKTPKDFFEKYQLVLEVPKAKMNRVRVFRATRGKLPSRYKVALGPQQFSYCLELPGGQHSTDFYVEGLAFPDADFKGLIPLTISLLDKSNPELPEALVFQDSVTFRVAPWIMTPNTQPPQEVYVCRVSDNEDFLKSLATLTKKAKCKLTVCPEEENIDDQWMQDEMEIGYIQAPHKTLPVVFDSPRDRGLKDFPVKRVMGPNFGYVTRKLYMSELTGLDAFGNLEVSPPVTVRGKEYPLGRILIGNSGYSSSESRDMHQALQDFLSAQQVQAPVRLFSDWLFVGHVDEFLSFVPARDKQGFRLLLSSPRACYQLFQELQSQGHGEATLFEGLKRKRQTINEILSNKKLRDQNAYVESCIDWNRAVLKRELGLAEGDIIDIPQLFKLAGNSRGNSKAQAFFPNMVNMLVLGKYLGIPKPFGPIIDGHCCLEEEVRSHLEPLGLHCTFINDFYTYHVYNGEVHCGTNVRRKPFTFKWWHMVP

On to `COC1CCN(C(=O)c2ccc3c(c2)nc(-c2cc4cccnc4n2CC2CC2)n3C)CC1N` (racemic) [Compound I-62, 1-{2-[1-(cyclopropylmethyl)-1H-pyrrolo[2,3-b]pyridin-2-yl]-1-methyl-1H-1,3-benzodiazole-5-carbonyl}-4-methoxypiperidin-3-amine], for which the IC50 was 1 to 10 µM in test [1] (setting [3]), 1 to 5 µM in test [1] (read-out: hPAD4 RFMS IC50), 1 to 10 µM in test [2] (setting [4]) and 5 to 10 µM in test [2] (read-out: mPAD4 RFMS IC50).

As for `COc1cc(C(=O)N2CC(O)(C3CCCCN3)C2)cc2nc(-c3cc4cccnc4n3CC3CC3)n(C)c12` (racemic) [Compound I-74], the IC50 in test [1] (setting [3]) is 10 to 100 µM; in test [1] (read-out: hPAD4 RFMS IC50), over 10 µM; in test [2] (setting [4]), 10 to 100 µM; in test [2] (read-out: mPAD4 RFMS IC50), over 10 µM.

With `COc1cc(C(=O)N2CCC(F)C(N)C2)cc2nc(-c3cc4cccnc4n3CC3CC3)n(C)c12` (racemic) [Compound I-75, 1-{2-[1-(Cyclopropylmethyl)-1H-pyrrolo[2,3-b]pyridin-2-yl]-7-methoxy-1-methyl-1H-1,3-benzodiazole-5-carbonyl}-4-fluoropiperidin-3-amine], the IC50 in test [1] (setting [3]) is 1 to 10 µM; in test [1] (read-out: hPAD4 RFMS IC50), 1 to 5 µM; in test [2] (setting [4]), 1 to 10 µM; in test [2] (read-out: mPAD4 RFMS IC50) it was 1 to 5 µM.

For the compound `Cn1c(-c2cc3cccnc3n2CC2CC2)nc2cc(C(=O)N3C[C@H](N)C[C@H](F)C3)ccc21` [Compound I-67], the figures for the IC50 in test [1] (setting [3]) and in test [1] (read-out: hPAD4 RFMS IC50) were 10 to 100 µM and over 10 µM, respectively.

Turning to `COc1cc(C(=O)N2C[C@H]3C[C@H](OC)[C@@H]2[C@@H]3N)cc2nc(-c3cc4cccnc4n3CC3CC3)n(C)c12` [Compound I-167, (1 S,4R,6S,7R)-2-{2-[1-(Cyclopropylmethyl)-1H-pyrrolo[2,3-b]pyridin-2-yl]-7-methoxy-1-methyl-1H-1,3-benzodiazole-5-carbonyl}-6-methoxy-2-azabicyclo[2.2.1]heptan-7-amine], the IC50 in test [1] (setting [3]) is 1 to 10 µM; in test [1] (read-out: hPAD4 RFMS IC50) it was 1 to 5 µM.

For the compound `CCn1c(-c2nc3cc(C(=O)N4C[C@H]5CC[C@@H]4[C@@H]5N)cc(OC)c3n2C[C@H]2C[C@@](C)(OC)C2)cc2cccnc21` [Compound I-168], the IC50 in test [1] (setting [3]) and in test [1] (read-out: hPAD4 RFMS IC50) was under 1 µM each time.

Regarding `COCCn1c(-c2nc3cc(C(=O)N4C[C@H]5CC[C@@H]4[C@@H]5N)cc(OC)c3n2C)cc2cccnc21` [Compound I-169], the IC50 in test [1] (setting [3]) and in test [1] (read-out: hPAD4 RFMS IC50) was under 1 µM each time.

With `COc1ccc2cc(-c3nc4cc(C(=O)N5C[C@H](N)CC[C@@H]5C)ccc4n3C)n(CC3CC3)c2n1` [Compound I-352, ((2S,5R)-5-amino-2-methylpiperidin-1-yl)(2-(1-(cyclopropylmethyl)-6-methoxy-1H-pyrrolo[2,3-b]pyridin-2-yl)-1-methyl-1H-benzo[d]imidazol-5-yl)methanone], the IC50 in test [1] (setting [3]) and in test [1] (read-out: hPAD4 RFMS IC50) was under 1 µM in each case.

Regarding `COc1ccc2cc(-c3nc4cc(C(=O)N5C[C@H]6CC[C@@H]5[C@@H]6N)ccc4n3C)n(CC3CC3)c2n1` [Compound I-353, ((1R,4R,7R)-7-amino-2-azabicyclo[2.2.1]heptan-2-yl)(2-(1-(cyclopropylmethyl)-6-methoxy-1H-pyrrolo[2,3-b]pyridin-2-yl)-1-methyl-1H-benzo[d]imidazol-5-yl)methanone], the IC50 in test [1] (setting [3]) and in test [1] (read-out: hPAD4 RFMS IC50) was under 1 µM in each case.

`COc1ccc2cc(-c3nc4cc(C(=O)N5C[C@@H](N)C[C@H](F)C5)ccc4n3C)n(CC3CC3)c2n1` [Compound I-354, ((3S,5S)-3-amino-5-fluoropiperidin-1-yl)(2-(1-(cyclopropylmethyl)-6-methoxy-1H-pyrrolo[2,3-b]pyridin-2-yl)-1-methyl-1H-benzo[d]imidazol-5-yl)methanone]: the IC50 in test [1] (setting [3]) and in test [1] (read-out: hPAD4 RFMS IC50) was under 1 µM in each case.

With `COc1ccc2cc(-c3nc4cc(C(=O)N5C[C@H](N)CC[C@@H]5C)cc(OC)c4n3C)n(CC3CC3)c2n1` [Compound I-355, ((2S,5R)-5-amino-2-methylpiperidin-1-yl)(2-(1-(cyclopropylmethyl)-6-methoxy-1H-pyrrolo[2,3-b]pyridin-2-yl)-7-methoxy-1-methyl-1H-benzo[d]imidazol-5-yl)methanone], the IC50 in test [1] (setting [3]) and in test [1] (read-out: hPAD4 RFMS IC50) was under 1 µM throughout.

As to `COc1ccc2cc(-c3nc4cc(C(=O)N5C[C@@H](N)C[C@H](F)C5)cc(OC)c4n3C)n(CC3CC3)c2n1` [Compound I-356, ((3S,5S)-3-amino-5-fluoropiperidin-1-yl)(2-(1-(cyclopropylmethyl)-6-methoxy-1H-pyrrolo[2,3-b]pyridin-2-yl)-7-methoxy-1-methyl-1H-benzo[d]imidazol-5-yl)methanone], the IC50 in test [1] (setting [3]) and in test [1] (read-out: hPAD4 RFMS IC50) was under 1 µM throughout.

Regarding `COc1cc(C(=O)N2C[C@H]3CCC2[C@H]3N)cc2nc(-c3cc4cc(/C=C/C5CC5)ccc4n3CC3CC3)n(C)c12` [Compound I-357], the IC50 in test [1] (setting [3]) and in test [1] (read-out: hPAD4 RFMS IC50) was under 1 µM each time.

For `COc1cc(C(=O)N2C[C@H]3CCC2[C@H]3N)cc2nc(-c3cc4cc(/C=C/CC(C)C)ccc4n3CC3CC3)n(C)c12` [Compound I-358], the IC50 in test [1] (setting [3]) and in test [1] (read-out: hPAD4 RFMS IC50) was under 1 µM throughout.

For the compound `COc1cc(C(=O)N2C[C@H]3CCC2[C@H]3N)cc2nc(-c3cc4cc(/C=C/c5ccccc5)ccc4n3CC3CC3)n(C)c12` [Compound I-359], the IC50 in test [1] (setting [3]) and in test [1] (read-out: hPAD4 RFMS IC50) was under 1 µM in each case.

For `COc1cc(C(=O)N2C[C@H]3CCC2[C@H]3N)cc2nc(-c3cc4cc(/C=C/CCc5ccccc5)ccc4n3CC3CC3)n(C)c12` [Compound I-360], the IC50 in test [1] (setting [3]) and in test [1] (read-out: hPAD4 RFMS IC50) was under 1 µM each time.

For `COc1cc(C(=O)N2C[C@H]3CC[C@H]2[C@H]3N)cc2nc(-c3cc4cc(/C=C/c5ccc(C(F)(F)F)cc5)ccc4n3CC3CC3)n(C)c12` [Compound I-361, ((1S,4R)-7-amino-2-azabicyclo[2.2.1]heptan-2-yl)(2-(1-(cyclopropylmethyl)-5-((E)-4-(trifluoromethyl)styryl)-1H-indol-2-yl)-7-methoxy-1-methyl-1H-benzo[d]imidazol-5-yl)methanone], the IC50 in test [1] (setting [3]) and in test [1] (read-out: hPAD4 RFMS IC50) was under 1 µM in each case.

Turning to `COc1cc(C(=O)N2C[C@H]3CC[C@@H]2[C@@H]3N)cc2nc(-c3cc4cc(C5=Cc6ccccc6C5)ccc4n3CC3CC3)n(C)c12` [Compound I-362], the IC50 in test [1] (setting [3]) and in test [1] (read-out: hPAD4 RFMS IC50) was under 1 µM throughout.

Take `COc1cc(C(=O)N2C[C@H]3CCC2[C@H]3N)cc2nc(-c3cc4ccc(/C=C/C5CC5)cc4n3CC3CC3)n(C)c12` [Compound I-363]: the IC50 in test [1] (setting [3]) and in test [1] (read-out: hPAD4 RFMS IC50) was under 1 µM throughout.

Consider `COc1cc(C(=O)N2C[C@H]3CCC2[C@H]3N)cc2nc(-c3cc4ccc(/C=C/CC(C)C)cc4n3CC3CC3)n(C)c12` [Compound I-364], for which the IC50 in test [1] (setting [3]) and in test [1] (read-out: hPAD4 RFMS IC50) was under 1 µM in each case.

On to `COc1cc(C(=O)N2C[C@H]3CCC2[C@H]3N)cc2nc(-c3cc4ccc(/C=C/c5ccccc5)cc4n3CC3CC3)n(C)c12` [Compound I-365], for which the IC50 in test [1] (setting [3]) and in test [1] (read-out: hPAD4 RFMS IC50) was under 1 µM throughout.

For the compound `COc1cc(C(=O)N2C[C@H]3CCC2[C@H]3N)cc2nc(-c3cc4ccc(/C=C/Cc5ccccc5)cc4n3CC3CC3)n(C)c12` [Compound I-366], the IC50 in test [1] (setting [3]) and in test [1] (read-out: hPAD4 RFMS IC50) was under 1 µM each time.

`COc1cc(C(=O)N2C[C@H]3CCC2[C@H]3N)cc2nc(-c3cc4ccc(/C=C/c5ccc(C(F)(F)F)cc5)cc4n3CC3CC3)n(C)c12` [Compound I-367]: the IC50 in test [1] (setting [3]) and in test [1] (read-out: hPAD4 RFMS IC50) was under 1 µM throughout.

Consider `COc1cc(C(=O)N2C[C@H]3CCC2[C@H]3N)cc2nc(-c3cc4ccc(C5=Cc6ccccc6C5)cc4n3CC3CC3)n(C)c12` [Compound I-368], for which the IC50 in test [1] (setting [3]) and in test [1] (read-out: hPAD4 RFMS IC50) was under 1 µM each time.

Turning to `COc1cc(C(=O)N2C[C@H]3CCC2[C@H]3N)cc2nc(-c3cc4ccc(/C=C/CCc5ccccc5)cc4n3CC3CC3)n(C)c12` [Compound I-369], the IC50 in test [1] (setting [3]) and in test [1] (read-out: hPAD4 RFMS IC50) was under 1 µM each time.

On to `COc1cc(C(=O)N2C[C@H]3CC[C@@H]2[C@@H]3N)cc2nc(-c3cc4ccc(C#N)cc4n3CC3CC3)n(C)c12` [Compound I-371], for which the IC50 in test [1] (setting [3]) and in test [1] (read-out: hPAD4 RFMS IC50) was under 1 µM throughout.

Take `COc1cc(C(=O)N2C[C@H]3CC[C@@H]2[C@@H]3N)cc2nc(-c3cc4cc(NCC5CC5)ccc4n3CC3CC3)n(C)c12` [Compound I-372]: the “hPAD4 RFMS pIC50” value in test [1] (pIC50=−log(IC50)) is “G/H”. The IC50 in test [1] (read-out: hPAD4 RFMS IC50) fell in the range of 1 to 5 µM.

As for `COc1cc(C(=O)N2C[C@H]3CCC2[C@H]3N)cc2nc(-c3cc4cc(N(C)CCC5CC5)ccc4n3CC3CC3)n(C)c12` [Compound I-373], the IC50 in test [1] (setting [3]) was 1 to 10 µM; in test [1] (read-out: hPAD4 RFMS IC50), 1 to 5 µM.

Turning to `COc1cc(C(=O)N2C[C@H]3CC[C@H]2[C@H]3N)cc2nc(-c3cc4cc(NCCC5CC5)ccc4n3CC3CC3)n(C)c12` [Compound I-374, ((1S,4R)-7-amino-2-azabicyclo[2.2.1]heptan-2-yl)(2-(5-((2-cyclopropylethyl)amino)-1-(cyclopropylmethyl)-1H-indol-2-yl)-7-methoxy-1-methyl-1H-benzo[d]imidazol-5-yl)methanone], the IC50 in test [1] (setting [3]) and in test [1] (read-out: hPAD4 RFMS IC50) was under 1 µM throughout.

In the case of `COc1cc(C(=O)N2C[C@H]3CC[C@@H]2[C@@H]3N)cc2nc(-c3cc4ccc(NCCC5CC5)cc4n3CC3CC3)n(C)c12` [Compound I-375], the IC50 in test [1] (setting [3]) and in test [1] (read-out: hPAD4 RFMS IC50) was under 1 µM throughout.

Regarding `COc1cc(C(=O)N2C[C@H]3CC[C@@H]2[C@@H]3N)cc2nc(-c3cc4ccc(N(C)CCC5CC5)cc4n3CC3CC3)n(C)c12` [Compound I-376], the IC50 in test [1] (setting [3]) and in test [1] (read-out: hPAD4 RFMS IC50) was under 1 µM throughout.
